{"source": "PubChem BioAssay AID1963853", "about": "(Molecular Pharmacology Branch, DTP, NCI, 2024)", "tested_on": "266295-075-R-J1-PDC spheroid viability", "assay": "Anticancer human tumor 266295-075-R-J1-PDC patient-derived head and neck squamous carcinoma cell line growth inhibition [POLQ]", "conditions": "spheroids with HUVEC and MSC; for pIC50: curve of first compound; for viability, T/C: stronger effect = lower value", "how_it_was_run": "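PDC + HUVEC + MSC complex spheroids; POLQ inhibitors ± partner drugs; top conc. at/near clinical Cmax, else 10 microM (SN-38 1 microM), half-log dilutions; 37 degrees C, 5% CO2.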", "key": {"[1]": {"conditions": "second compound 0.0316 µM, first compound 0.0316 µM"}, "[2]": {"conditions": "second compound 0.0316 µM, first compound 0.1 µM"}, "[3]": {"conditions": "second compound 0.0316 µM, first compound 0.316 µM"}, "[4]": {"conditions": "second compound 0.0316 µM, first compound 1 µM"}, "[5]": {"conditions": "second compound 0.0316 µM, first compound 3.16 µM"}, "[6]": {"conditions": "second compound 0.0316 µM, first compound 10 µM"}, "[7]": {"conditions": "second compound 0.1 µM, first compound 0.0316 µM"}, "[8]": {"conditions": "second compound 0.1 µM, first compound 0.1 µM"}, "[9]": {"conditions": "second compound 0.1 µM, first compound 0.316 µM"}, "[10]": {"conditions": "second compound 0.1 µM, first compound 1 µM"}, "[11]": {"conditions": "second compound 0.1 µM, first compound 3.16 µM"}, "[12]": {"conditions": "second compound 0.1 µM, first compound 10 µM"}, "[13]": {"conditions": "second compound 0.316 µM, first compound 0.0316 µM"}, "[14]": {"conditions": "second compound 0.316 µM, first compound 0.1 µM"}, "[15]": {"conditions": "second compound 0.316 µM, first compound 0.316 µM"}, "[16]": {"conditions": "second compound 0.316 µM, first compound 1 µM"}, "[17]": {"conditions": "second compound 0.316 µM, first compound 3.16 µM"}, "[18]": {"conditions": "second compound 0.316 µM, first compound 10 µM"}, "[19]": {"conditions": "second compound 1 µM, first compound 0.0316 µM"}, "[20]": {"conditions": "second compound 1 µM, first compound 0.1 µM"}, "[21]": {"conditions": "second compound 1 µM, first compound 0.316 µM"}, "[22]": {"conditions": "second compound 1 µM, first compound 1 µM"}, "[23]": {"conditions": "second compound 1 µM, first compound 3.16 µM"}, "[24]": {"conditions": "second compound 1 µM, first compound 10 µM"}, "[25]": {"conditions": "second compound 3.16 µM, first compound 0.0316 µM"}, "[26]": {"conditions": "second compound 3.16 µM, first compound 0.1 µM"}, "[27]": {"conditions": "second compound 3.16 µM, first compound 0.316 µM"}, "[28]": {"conditions": "second compound 3.16 µM, first compound 1 µM"}, "[29]": {"conditions": "second compound 3.16 µM, first compound 3.16 µM"}, "[30]": {"conditions": "second compound 3.16 µM, first compound 10 µM"}, "[31]": {"conditions": "second compound 10 µM, first compound 0.0316 µM"}, "[32]": {"conditions": "second compound 10 µM, first compound 0.1 µM"}, "[33]": {"conditions": "second compound 10 µM, first compound 0.316 µM"}, "[34]": {"conditions": "second compound 10 µM, first compound 1 µM"}, "[35]": {"conditions": "second compound 10 µM, first compound 3.16 µM"}, "[36]": {"conditions": "second compound 10 µM, first compound 10 µM"}}, "note": "pIC50: −log10 of the molar value.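 Further: spheroids exposed to compounds for seven days before readout.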"}
{"smiles": "CC1COCCN1c1cc(-c2ccnn2C)c2ccnc(-c3ccn[nH]3)c2n1", "note": "(centres undefined) + Cc1cccc(N(C)C(=O)C2C(O)CCN2c2nc(C)cc(C(F)(F)F)c2C#N)c1", "values": [{"measurement": "pIC50", "setting": "second compound 0.0316 µM", "result": 5.79}, {"measurement": "pIC50", "setting": "second compound 0.1 µM", "result": 5.88}, {"measurement": "pIC50", "setting": "second compound 0.316 µM", "result": 5.85}, {"measurement": "pIC50", "setting": "second compound 1 µM", "result": 5.94}, {"measurement": "pIC50", "setting": "second compound 3.16 µM", "result": 5.73}, {"measurement": "pIC50", "setting": "second compound 10 µM", "result": 5.75}, {"measurement": "viability, T/C", "setting": "[1]", "result": 93.8, "unit": "%"}, {"measurement": "viability, T/C", "setting": "[2]", "result": 69.7, "unit": "%"}, {"measurement": "viability, T/C", "setting": "[3]", "result": 68.4, "unit": "%"}, {"measurement": "viability, T/C", "setting": "[4]", "result": 56, "unit": "%"}, {"measurement": "viability, T/C", "setting": "[5]", "result": 41, "unit": "%"}, {"measurement": "viability, T/C", "setting": "[6]", "result": 40, "unit": "%"}, {"measurement": "viability, T/C", "setting": "[7]", "result": 87.2, "unit": "%"}, {"measurement": "viability, T/C", "setting": "[8]", "result": 68.4, "unit": "%"}, {"measurement": "viability, T/C", "setting": "[9]", "result": 60.9, "unit": "%"}, {"measurement": "viability, T/C", "setting": "[10]", "result": 52.6, "unit": "%"}, {"measurement": "viability, T/C", "setting": "[11]", "result": 45.2, "unit": "%"}, {"measurement": "viability, T/C", "setting": "[12]", "result": 40.9, "unit": "%"}, {"measurement": "viability, T/C", "setting": "[13]", "result": 75.6, "unit": "%"}, {"measurement": "viability, T/C", "setting": "[14]", "result": 78.2, "unit": "%"}, {"measurement": "viability, T/C", "setting": "[15]", "result": 68.9, "unit": "%"}, {"measurement": "viability, T/C", "setting": "[16]", "result": 50.7, "unit": "%"}, {"measurement": "viability, T/C", "setting": "[17]", "result": 47.4, "unit": "%"}, {"measurement": "viability, T/C", "setting": "[18]", "result": 36.9, "unit": "%"}, {"measurement": "viability, T/C", "setting": "[19]", "result": 89, "unit": "%"}, {"measurement": "viability, T/C", "setting": "[20]", "result": 81.6, "unit": "%"}, {"measurement": "viability, T/C", "setting": "[21]", "result": 69.4, "unit": "%"}, {"measurement": "viability, T/C", "setting": "[22]", "result": 48.4, "unit": "%"}, {"measurement": "viability, T/C", "setting": "[23]", "result": 46.3, "unit": "%"}, {"measurement": "viability, T/C", "setting": "[24]", "result": 38.1, "unit": "%"}, {"measurement": "viability, T/C", "setting": "[25]", "result": 81.3, "unit": "%"}, {"measurement": "viability, T/C", "setting": "[26]", "result": 78.4, "unit": "%"}, {"measurement": "viability, T/C", "setting": "[27]", "result": 66.8, "unit": "%"}, {"measurement": "viability, T/C", "setting": "[28]", "result": 54.9, "unit": "%"}, {"measurement": "viability, T/C", "setting": "[29]", "result": 46.6, "unit": "%"}, {"measurement": "viability, T/C", "setting": "[30]", "result": 36.7, "unit": "%"}, {"measurement": "viability, T/C", "setting": "[31]", "result": 87.4, "unit": "%"}, {"measurement": "viability, T/C", "setting": "[32]", "result": 90.1, "unit": "%"}, {"measurement": "viability, T/C", "setting": "[33]", "result": 69.7, "unit": "%"}, {"measurement": "viability, T/C", "setting": "[34]", "result": 56.3, "unit": "%"}, {"measurement": "viability, T/C", "setting": "[35]", "result": 46.1, "unit": "%"}, {"measurement": "viability, T/C", "setting": "[36]", "result": 38, "unit": "%"}]}
{"smiles": "CCCS(=O)(=O)Nc1ccc(F)c(C(=O)c2c[nH]c3ncc(-c4ccc(Cl)cc4)cc23)c1F", "note": "+ Cc1cccc(N(C)C(=O)C2C(O)CCN2c2nc(C)cc(C(F)(F)F)c2C#N)c1", "values": [{"measurement": "pIC50", "setting": "second compound 0.0316 µM", "result": "< 5.00"}, {"measurement": "pIC50", "setting": "second compound 0.1 µM", "result": "< 5.00"}, {"measurement": "pIC50", "setting": "second compound 0.316 µM", "result": "< 5.00"}, {"measurement": "pIC50", "setting": "second compound 1 µM", "result": "< 5.00"}, {"measurement": "pIC50", "setting": "second compound 3.16 µM", "result": "< 5.00"}, {"measurement": "pIC50", "setting": "second compound 10 µM", "result": "< 5.00"}, {"measurement": "viability, T/C", "setting": "[1]", "result": 108, "unit": "%"}, {"measurement": "viability, T/C", "setting": "[2]", "result": 97.7, "unit": "%"}, {"measurement": "viability, T/C", "setting": "[3]", "result": 122, "unit": "%"}, {"measurement": "viability, T/C", "setting": "[4]", "result": 161, "unit": "%"}, {"measurement": "viability, T/C", "setting": "[5]", "result": 150, "unit": "%"}, {"measurement": "viability, T/C", "setting": "[6]", "result": 126, "unit": "%"}, {"measurement": "viability, T/C", "setting": "[7]", "result": 127, "unit": "%"}, {"measurement": "viability, T/C", "setting": "[8]", "result": 81.3, "unit": "%"}, {"measurement": "viability, T/C", "setting": "[9]", "result": 92.8, "unit": "%"}, {"measurement": "viability, T/C", "setting": "[10]", "result": 126, "unit": "%"}, {"measurement": "viability, T/C", "setting": "[11]", "result": 187, "unit": "%"}, {"measurement": "viability, T/C", "setting": "[12]", "result": 142, "unit": "%"}, {"measurement": "viability, T/C", "setting": "[13]", "result": 95.5, "unit": "%"}, {"measurement": "viability, T/C", "setting": "[14]", "result": 93, "unit": "%"}, {"measurement": "viability, T/C", "setting": "[15]", "result": 98.1, "unit": "%"}, {"measurement": "viability, T/C", "setting": "[16]", "result": 134, "unit": "%"}, {"measurement": "viability, T/C", "setting": "[17]", "result": 171, "unit": "%"}, {"measurement": "viability, T/C", "setting": "[18]", "result": 139, "unit": "%"}, {"measurement": "viability, T/C", "setting": "[19]", "result": 118, "unit": "%"}, {"measurement": "viability, T/C", "setting": "[20]", "result": 76.5, "unit": "%"}, {"measurement": "viability, T/C", "setting": "[21]", "result": 95.5, "unit": "%"}, {"measurement": "viability, T/C", "setting": "[22]", "result": 132, "unit": "%"}, {"measurement": "viability, T/C", "setting": "[23]", "result": 158, "unit": "%"}, {"measurement": "viability, T/C", "setting": "[24]", "result": 142, "unit": "%"}, {"measurement": "viability, T/C", "setting": "[25]", "result": 106, "unit": "%"}, {"measurement": "viability, T/C", "setting": "[26]", "result": 100, "unit": "%"}, {"measurement": "viability, T/C", "setting": "[27]", "result": 96.6, "unit": "%"}, {"measurement": "viability, T/C", "setting": "[28]", "result": 111, "unit": "%"}, {"measurement": "viability, T/C", "setting": "[29]", "result": 155, "unit": "%"}, {"measurement": "viability, T/C", "setting": "[30]", "result": 132, "unit": "%"}, {"measurement": "viability, T/C", "setting": "[31]", "result": 96.3, "unit": "%"}, {"measurement": "viability, T/C", "setting": "[32]", "result": 137, "unit": "%"}, {"measurement": "viability, T/C", "setting": "[33]", "result": 113, "unit": "%"}, {"measurement": "viability, T/C", "setting": "[34]", "result": 111, "unit": "%"}, {"measurement": "viability, T/C", "setting": "[35]", "result": 187, "unit": "%"}, {"measurement": "viability, T/C", "setting": "[36]", "result": 134, "unit": "%"}]}
